Reference: US11279681B2, “3-alkyl bicyclic [4,5,0] hydroxamic acids as HDAC inhibitors” (Valo Health, Inc., priority 2015, dated 2022)
pIC50: −log10 of the molar value.

Biological target: T1, HDAC6 (Homo sapiens, UniProt Q9UBN7)
T1 sequence (Q9UBN7 1-1215): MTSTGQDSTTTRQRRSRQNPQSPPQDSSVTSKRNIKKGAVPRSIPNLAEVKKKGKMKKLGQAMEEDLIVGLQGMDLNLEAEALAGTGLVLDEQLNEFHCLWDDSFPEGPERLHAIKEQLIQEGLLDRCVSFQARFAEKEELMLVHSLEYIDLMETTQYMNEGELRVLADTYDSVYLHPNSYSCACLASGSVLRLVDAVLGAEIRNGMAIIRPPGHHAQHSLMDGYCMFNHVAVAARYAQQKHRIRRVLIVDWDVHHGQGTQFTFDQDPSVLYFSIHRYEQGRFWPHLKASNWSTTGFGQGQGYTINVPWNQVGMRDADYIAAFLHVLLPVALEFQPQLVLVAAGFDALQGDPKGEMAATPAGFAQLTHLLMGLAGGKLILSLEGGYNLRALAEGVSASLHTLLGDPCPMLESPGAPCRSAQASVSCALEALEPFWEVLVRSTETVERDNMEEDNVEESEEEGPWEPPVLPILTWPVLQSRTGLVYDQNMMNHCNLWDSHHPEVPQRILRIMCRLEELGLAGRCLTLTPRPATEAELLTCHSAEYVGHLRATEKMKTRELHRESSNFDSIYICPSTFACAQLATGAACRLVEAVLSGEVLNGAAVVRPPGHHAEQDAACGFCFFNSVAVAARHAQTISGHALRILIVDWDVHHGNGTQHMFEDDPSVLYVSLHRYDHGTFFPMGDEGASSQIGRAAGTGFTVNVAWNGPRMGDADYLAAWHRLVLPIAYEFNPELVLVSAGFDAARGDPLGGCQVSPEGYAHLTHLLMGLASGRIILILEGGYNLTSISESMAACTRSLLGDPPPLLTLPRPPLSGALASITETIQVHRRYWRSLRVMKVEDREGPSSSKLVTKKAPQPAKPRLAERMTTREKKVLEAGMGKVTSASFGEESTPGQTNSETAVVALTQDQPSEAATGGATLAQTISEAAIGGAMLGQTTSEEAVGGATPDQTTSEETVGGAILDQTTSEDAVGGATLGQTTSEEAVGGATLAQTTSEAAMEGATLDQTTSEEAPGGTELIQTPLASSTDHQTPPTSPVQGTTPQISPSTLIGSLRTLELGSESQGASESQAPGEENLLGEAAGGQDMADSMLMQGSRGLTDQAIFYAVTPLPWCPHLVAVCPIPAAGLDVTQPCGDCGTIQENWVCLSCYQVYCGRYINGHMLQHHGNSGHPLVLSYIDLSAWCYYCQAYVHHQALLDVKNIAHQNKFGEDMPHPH
Assay: In vitro histone deacetylase assay: enzymatic HDAC6 electrophoretic mobility shift assay
Type: biochemical
Conditions: full length human recombinant HDAC6, 1 nM enzyme, 2 μM peptide substrate RHKK(Ac)-NH2, 25° C.; read-out: Inhibitory Concentration (IC50) Values for Representative Compounds against HDAC6, Activity Range

| Structure (SMILES) | pIC50 |
| --- | --- |
| C[C@H]1COc2cc(C(=O)NO)ccc2CN1C(=O)NC1CCCCC1 [(S)-N4-cyclohexyl-N8-hydroxy-3-methyl-2,3-dihydrobenzo[f][1,4]oxazepine-4,8(5H)-dicarboxamide] | ≥ 7.00 |
| COC[C@@H]1CN(C(=O)Nc2ccc(OC)cc2)Cc2ccc(C(=O)NO)cc2O1 [(S)-N8-hydroxy-2-(methoxymethyl)-N4-(4-methoxyphenyl)-2,3-dihydrobenzo[f][1,4]oxazepine-4,8(5H)-dicarboxamide] | 6.30 to 7.00 |
| C[C@H]1COc2cc(C(=O)NO)ccc2CN1C(=O)Nc1ccccn1 [(S)-N8-hydroxy-3-methyl-N4-(pyridin-2-yl)-2,3-dihydrobenzo[f][1,4]oxazepine-4,8(5H)-dicarboxamide] | ≥ 7.00 |
| C[C@H]1COc2cc(C(=O)NO)ccc2CN1C(=O)Nc1cccnc1 [(S)-N8-hydroxy-3-methyl-N4-(pyridin-3-yl)-2,3-dihydrobenzo[f][1,4]oxazepine-4,8(5H)-dicarboxamide] | ≥ 7.00 |
| C[C@H]1COc2cc(C(=O)NO)ccc2CN1C(=O)Nc1ccncc1 [(S)-N8-hydroxy-3-methyl-N4-(pyridin-4-yl)-2,3-dihydrobenzo[f][1,4]oxazepine-4,8(5H)-dicarboxamide] | ≥ 7.00 |
| C[C@H]1COc2cc(C(=O)NO)ccc2CN1C(=O)NC1CCOCC1 [(S)-N8-hydroxy-3-methyl-N4-(tetrahydro-2H-pyran-4-yl)-2,3-dihydrobenzo[f][1,4]oxazepine-4,8(5H)-dicarboxamide] | ≥ 7.00 |
| C[C@H]1COc2cc(C(=O)NO)ccc2CN1C(=O)Nc1ccccc1 [(S)-N8-hydroxy-3-methyl-N4-phenyl-2,3-dihydrobenzo[f][1,4]oxazepine-4,8(5H)-dicarboxamide] | ≥ 7.00 |
| C[C@H]1COc2cc(C(=O)NO)ccc2CN1C(=O)N(C)C1CCOCC1 [(S)-N8-hydroxy-N4,3-dimethyl-N4-(tetrahydro-2H-pyran-4-yl)-2,3-dihydrobenzo[f][1,4]oxazepine-4,8(5H)-dicarboxamide] | ≥ 7.00 |
| C[C@H]1COc2cc(C(=O)NO)ccc2CN1C(=O)N(C)c1ccccc1 [(S)-N8-hydroxy-N4,3-dimethyl-N4-phenyl-2,3-dihydrobenzo[f][1,4]oxazepine-4,8(5H)-dicarboxamide] | 6.30 to 7.00 |
| C[C@H]1COc2cc(C(=O)NO)ccc2CN1C(=O)N(C)C [(S)-N8-hydroxy-N4,N4,3-trimethyl-2,3-dihydrobenzo[f][1,4]oxazepine-4,8(5H)-dicarboxamide] | ≥ 7.00 |
| COCCNC(=O)N1Cc2ccc(C(=O)NO)cc2OC[C@@H]1C [(S)-N8-hydroxy-N4-(2-methoxyethyl)-3-methyl-2,3-dihydrobenzo[f][1,4]oxazepine-4,8(5H)-dicarboxamide] | ≥ 7.00 |
| COc1ccc(NC(=O)N2Cc3ccc(C(=O)NO)cc3O[C@@H](c3ccccc3)C2)cc1 [(S)-N8-hydroxy-N4-(4-methoxyphenyl)-2-phenyl-2,3-dihydrobenzo[f][1,4]oxazepine-4,8(5H)-dicarboxamide] | ≥ 7.00 |
| COC[C@H]1COc2cc(C(=O)NO)ccc2CN1c1ccccc1C [(S)-N-hydroxy-3-(methoxymethyl)-4-(o-tolyl)-2,3,4,5-tetrahydrobenzo[f][1,4]oxazepine-8-carboxamide] | ≥ 7.00 |
| COC[C@H]1COc2cc(C(=O)NO)ccc2CN1C [(S)-N-hydroxy-3-(methoxymethyl)-4-methyl-2,3,4,5-tetrahydrobenzo[f][1,4]oxazepine-8-carboxamide] | ≥ 7.00 |
| COC[C@H]1COc2cc(C(=O)NO)ccc2CN1c1ccccc1 [(S)-N-hydroxy-3-(methoxymethyl)-4-phenyl-2,3,4,5-tetrahydrobenzo[f][1,4]oxazepine-8-carboxamide] | ≥ 7.00 |
| CC(C)[C@H]1COc2cc(C(=O)NO)ccc2CN1c1ccccn1 [(S)-N-hydroxy-3-isopropyl-4-(pyridin-2-yl)-2,3,4,5-tetrahydrobenzo[f][1,4]oxazepine-8-carboxamide] | ≥ 7.00 |
| CC(C)[C@H]1COc2cc(C(=O)NO)ccc2CN1c1cccnc1 [(S)-N-hydroxy-3-isopropyl-4-(pyridin-3-yl)-2,3,4,5-tetrahydrobenzo[f][1,4]oxazepine-8-carboxamide] | ≥ 7.00 |

| Structure (SMILES) | pIC50 |
| --- | --- |
| CC(C)[C@H]1COc2cc(C(=O)NO)ccc2CN1c1ccncc1 [(S)-N-hydroxy-3-isopropyl-4-(pyridin-4-yl)-2,3,4,5-tetrahydrobenzo[f][1,4]oxazepine-8-carboxamide] | < 6.30 |
| C[C@H]1COc2cc(C(=O)NO)ccc2CN1CCN1CCOCC1 [(S)-N-hydroxy-3-methyl-4-(2-morpholinoethyl)-2,3,4,5-tetrahydrobenzo[f][1,4]oxazepine-8-carboxamide] | 6.30 to 7.00 |
| C[C@H]1COc2cc(C(=O)NO)ccc2CN1c1cccc(C(F)(F)F)c1 [(S)-N-hydroxy-3-methyl-4-(3-(trifluoromethyl)phenyl)-2,3,4,5-tetrahydrobenzo[f][1,4]oxazepine-8-carboxamide] | 6.30 to 7.00 |
| C[C@H]1COc2cc(C(=O)NO)ccc2CN1CCCN1CCOCC1 [(S)-N-hydroxy-3-methyl-4-(3-morpholinopropyl)-2,3,4,5-tetrahydrobenzo[f][1,4]oxazepine-8-carboxamide] | 6.30 to 7.00 |
| C[C@H]1COc2cc(C(=O)NO)ccc2CN1c1ccc(OC(F)(F)F)cc1 [(S)-N-hydroxy-3-methyl-4-(4-(trifluoromethoxy)phenyl)-2,3,4,5-tetrahydrobenzo[f][1,4]oxazepine-8-carboxamide] | 6.30 to 7.00 |
| C[C@H]1COc2cc(C(=O)NO)ccc2CN1c1ccc(C(F)(F)F)cc1 [(S)-N-hydroxy-3-methyl-4-(4-(trifluoromethyl)phenyl)-2,3,4,5-tetrahydrobenzo[f][1,4]oxazepine-8-carboxamide] | 6.30 to 7.00 |
| C[C@H]1COc2cc(C(=O)NO)ccc2CN1C(=O)N1CCN(C)CC1 [(S)-N-hydroxy-3-methyl-4-(4-methylpiperazine-1-carbonyl)-2,3,4,5-tetrahydrobenzo[f][1,4]oxazepine-8-carboxamide] | 6.30 to 7.00 |
| C[C@H]1COc2cc(C(=O)NO)ccc2CN1S(C)(=O)=O [(S)-N-hydroxy-3-methyl-4-(methylsulfonyl)-2,3,4,5-tetrahydrobenzo[f][1,4]oxazepine-8-carboxamide] | ≥ 7.00 |
| C[C@H]1COc2cc(C(=O)NO)ccc2CN1C(=O)N1CCOCC1 [(S)-N-hydroxy-3-methyl-4-(morpholine-4-carbonyl)-2,3,4,5-tetrahydrobenzo[f][1,4]oxazepine-8-carboxamide] | ≥ 7.00 |
| Cc1ccccc1N1Cc2ccc(C(=O)NO)cc2OC[C@@H]1C [(S)-N-hydroxy-3-methyl-4-(o-tolyl)-2,3,4,5-tetrahydrobenzo[f][1,4]oxazepine-8-carboxamide] | ≥ 7.00 |
| C[C@H]1COc2cc(C(=O)NO)ccc2CN1C1COC1 [(S)-N-hydroxy-3-methyl-4-(oxetan-3-yl)-2,3,4,5-tetrahydrobenzo[f][1,4]oxazepine-8-carboxamide] | < 6.30 |
| C[C@H]1COc2cc(C(=O)NO)ccc2CN1CC1COC1 [(S)-N-hydroxy-3-methyl-4-(oxetan-3-ylmethyl)-2,3,4,5-tetrahydrobenzo[f][1,4]oxazepine-8-carboxamide] | ≥ 7.00 |
| C[C@H]1COc2cc(C(=O)NO)ccc2CN1C(=O)N1CCCCC1 [(S)-N-hydroxy-3-methyl-4-(piperidine-1-carbonyl)-2,3,4,5-tetrahydrobenzo[f][1,4]oxazepine-8-carboxamide] | ≥ 7.00 |
| C[C@H]1COc2cc(C(=O)NO)ccc2CN1c1ccccn1 [(S)-N-hydroxy-3-methyl-4-(pyridin-2-yl)-2,3,4,5-tetrahydrobenzo[f][1,4]oxazepine-8-carboxamide] | ≥ 7.00 |
| C[C@H]1COc2cc(C(=O)NO)ccc2CN1c1cccnc1 [(S)-N-hydroxy-3-methyl-4-(pyridin-3-yl)-2,3,4,5-tetrahydrobenzo[f][1,4]oxazepine-8-carboxamide] | ≥ 7.00 |
| C[C@H]1COc2cc(C(=O)NO)ccc2CN1c1ccncc1 [(S)-N-hydroxy-3-methyl-4-(pyridin-4-yl)-2,3,4,5-tetrahydrobenzo[f][1,4]oxazepine-8-carboxamide] | 6.30 to 7.00 |
| C[C@H]1COc2cc(C(=O)NO)ccc2CN1C(=O)N1CCCC1 [(S)-N-hydroxy-3-methyl-4-(pyrrolidine-1-carbonyl)-2,3,4,5-tetrahydrobenzo[f][1,4]oxazepine-8-carboxamide] | ≥ 7.00 |
